Patent US20140045806A1 (priority 2012, published 2014)
Read-outs that look alike come from different tables or passages of the source. Marks after values point to notes of the source that are not given here.

Assays:
postmenopausal women = experiment: ERC-210 phase III trial, MENQOL questionnaire (sexual domain and summary score); assay type: in vivo; conditions: for MENQOL sexual domain, average percentage of change from baseline, percentages of the three DHEA doses combined: 12 weeks; for MENQOL Avoiding intimacy, average % change from baseline to Week 12 in severity score over placebo / MENQOL Sexual desire, average % change from baseline to Week 12 in severity score over placebo / MENQOL Vaginal dryness at sexual activity, average % change from baseline to Week 12 in severity score over placebo: average of the 3 DHEA doses
Source text: The example below is intended only to illustrate a particular embodiment of the present invention and is not meant to limit the scope of the invention in any manner. This study (ERC-210) is a phase III, prospective, multicentre, randomized, placebo-controlled, and double-blind trial. […] The DHEA ovules or suppositories (Vaginorm™) containing prasterone in a lipophilic base were manufactured by Recipharm, Karlskoga, Sweden. The study was divided into two phases, namely screening followed by a treatment period of 12 weeks. The protocol was approved by the Institutional Review Board of the Centre Hospitalier de I'Université Laval (Quebec City, Canada), McGill University (Montreal, Canada), Ethica (Montreal, Canada), Eastern Virginia Medical School (Norfolk, Va., USA) and the Western Institutional Review Board (Los Angeles, USA).
The inclusion and exclusion criteria were as described in (Labrie, Archer et al. 2009b). A written informed consent was obtained from all subjects prior to the performance of any study-related procedure. […] A partial gynecological examination was performed to evaluate the aspect of the mucosa and tolerance to the medication on day 1 and at all visits. The standard laboratory tests, namely hematology (including complete blood count and coagulation), blood chemistry and urinalysis were performed at screening, day 1 and at all visits. Summary tabulations were prepared displaying the number of observations, mean or geometric mean as appropriate, SD; SEM, 95% two-sided CI; median, minimum, and maximum for continuous variables; and the number and percentage per category for categorical data. Statistical analyses were performed at the two-sided significance level of 0.05 unless otherwise stated. […] The endpoints for analysis consisted of the following: desire/interest, arousal and orgasm were self-rated by the women at screening, at day 1, and at week 4, 8 and 12 using the ASF and MENQOL questionnaires. Baseline was defined as the value on day 1, obtained before first use of the study treatment, and change from baseline to week 12 was calculated for each participant for each domain endpoint. The analysis comparing each dose of DHEA to placebo was performed by analysis of covariance, with the baseline value used as the covariate. Missing values were replaced by the last observation made.
The three questions covered by the sexual domain of the MENQOL questionnaire are change in sexual desire, intimacy avoidance and vaginal dryness during sexual activity. In our previous publication (Labrie, Archer et al. 2009a), only women having a score value at baseline and week 12 were used in the calculations while the present evaluation carries forward the last value obtained after baseline when data at week 12 are missing. […] Since the number of women is as low as 12 in some groups for some parameters after the distribution is made between women with and without MS, the calculations have also been performed with the combination of the three prasterone doses, although the number of women remains low in the corresponding placebo group.

vaginal nerve fibers = conditions: rat, lamina propria and muscularis, cited from earlier work
[1] = 0.25% DHEA intravaginal daily 12 weeks, MS pain at sexual activity at baseline
[2] = 0.5% DHEA intravaginal daily 12 weeks, MS pain at sexual activity at baseline
[3] = 0.5% DHEA intravaginal daily 12 weeks, all subjects (ITT)
[4] = 1.0% DHEA intravaginal daily 12 weeks, no MS pain at sexual activity at baseline
[5] = Pool 3 Doses DHEA intravaginal daily 12 weeks, MS pain at sexual activity at baseline
[6] = Pool 3 Doses DHEA intravaginal daily 12 weeks, MS pain at sexual activity at baseline, listed as prasterone
[7] = Pool 3 Doses DHEA intravaginal daily 12 weeks, all subjects (ITT)
[8] = Pool 3 Doses DHEA intravaginal daily 12 weeks, all subjects (ITT), listed as prasterone
[9] = Pool 3 Doses DHEA intravaginal daily 12 weeks, no MS pain at sexual activity at baseline
[10] = Pool 3 Doses DHEA intravaginal daily 12 weeks, no MS pain at sexual activity at baseline, listed as prasterone

In the case of `C[C@]12CC[C@H](O)CC1=CC[C@@H]1[C@@H]2CC[C@]2(C)C(=O)CC[C@@H]12` [DHEA, (3β)-3-Hydroxyandrost-5-en-17-one], the “MENQOL Avoiding intimacy (Q 29) severity score, average % change from baseline to Week 12 (decreased from baseline)” value (postmenopausal women; [1]) is reported as 41%, the “MENQOL SUMMARY SCORE of the four domains, average % change from baseline to Week 12 (decreased from baseline)” value (postmenopausal women; [1]) is reported as 24%** and the “MENQOL Sexual desire (Q 27) severity score, average % change from baseline to Week 12 (decreased from baseline)” value (postmenopausal women; [1]) is reported as 48%. For the same molecule, the “MENQOL Vaginal dryness during intercourse (Q28) severity score, average % change from baseline to Week 12 (decreased from baseline)” value (postmenopausal women; [1]) was 45%, the “MENQOL SUMMARY SCORE of the four domains, average % change from baseline to Week 12 (decreased from baseline)” value (postmenopausal women; 0.25% DHEA intravaginal daily 12 weeks, all subjects (ITT)) was 24%** and the “MENQOL SUMMARY SCORE of the four domains, average % change from baseline to Week 12 (decreased from baseline)” value (postmenopausal women; 0.25% DHEA intravaginal daily 12 weeks, no MS pain at sexual activity at baseline) was 25%*. For the same molecule, the “MENQOL Avoiding intimacy (Q 29) severity score, average % change from baseline to Week 12 (decreased from baseline)” value (postmenopausal women; [2]) was 43%, the “MENQOL SUMMARY SCORE of the four domains, average % change from baseline to Week 12 (decreased from baseline)” value (postmenopausal women; [2]) was 19% and the “MENQOL Sexual desire (Q 27) severity score, average % change from baseline to Week 12 (decreased from baseline)” value (postmenopausal women; [2]) was 36%. For the same molecule, the “MENQOL SUMMARY SCORE of the four domains, average % change from baseline to Week 12 (decreased from baseline)” value (postmenopausal women; [3]) was 18%, the “MENQOL Sexual desire (Q 27) severity score, average % change from baseline to Week 12 (decreased from baseline)” value (postmenopausal women; [3]) was 31% and the “MENQOL SUMMARY SCORE of the four domains, average % change from baseline to Week 12 (decreased from baseline)” value (postmenopausal women; 0.5% DHEA intravaginal daily 12 weeks, no MS pain at sexual activity at baseline) was 12%. The “MENQOL SUMMARY SCORE of the four domains, average % change from baseline to Week 12 (decreased from baseline)” value (postmenopausal women; 1.0% DHEA intravaginal daily 12 weeks, MS pain at sexual activity at baseline) was 22%*, the “MENQOL SUMMARY SCORE of the four domains, average % change from baseline to Week 12 (decreased from baseline)” value (postmenopausal women; 1.0% DHEA intravaginal daily 12 weeks, all subjects (ITT)) was 20%* and the “MENQOL Avoiding intimacy (Q 29) severity score, average % change from baseline to Week 12 (decreased from baseline)” value (postmenopausal women; [4]) was 27%. For the same molecule, the “MENQOL SUMMARY SCORE of the four domains, average % change from baseline to Week 12 (decreased from baseline)” value (postmenopausal women; [4]) was 14%, the “MENQOL Sexual desire (Q 27) severity score, average % change from baseline to Week 12 (decreased from baseline)” value (postmenopausal women; [4]) was 35% and the “Changes over placebo, sum of the three questions of the MENQOL sexual function domain” value (postmenopausal women; MS pain group) was 62.8%. For the same molecule, the “Specific (above placebo) effect in MENQOL, global increase over placebo” value (postmenopausal women; MS pain group) was 0.78 fold, the “MENQOL sexual domain, average percentage of change from baseline, percentages of the three DHEA doses combined” value (postmenopausal women; MS pain group) was 49.0% and the “MENQOL Avoiding intimacy (Q 29) severity score, average % change from baseline to Week 12 (decreased from baseline)” value (postmenopausal women; [5]) was 46.4%*. For the same molecule, the “MENQOL SUMMARY SCORE of the four domains, average % change from baseline to Week 12 (decreased from baseline)” value (postmenopausal women; [5]) was 21.4%*, the “MENQOL Sexual desire (Q 27) severity score, average % change from baseline to Week 12 (decreased from baseline)” value (postmenopausal women; [5]) was 45.0% and the “MENQOL Sexual domain severity score, average % change from baseline to Week 12 (decreased from baseline)” value (postmenopausal women; [5]) was 48.4%**. The “MENQOL Vaginal dryness during intercourse (Q28) severity score, average % change from baseline to Week 12 (decreased from baseline)” value (postmenopausal women; [5]) was 52.4%**, the “MENQOL Avoiding intimacy (Q 29) severity score, average % change from baseline to Week 12 (decreased from baseline)” value (postmenopausal women; [6]) was 46.4% and the “MENQOL SUMMARY SCORE of the four domains, average % change from baseline to Week 12 (decreased from baseline)” value (postmenopausal women; [6]) was 21.4%. For the same molecule, the “MENQOL Sexual desire (Q 27) severity score, average % change from baseline to Week 12 (decreased from baseline)” value (postmenopausal women; [6]) was 45%, the “MENQOL Sexual domain severity score, average % change from baseline to Week 12 (decreased from baseline)” value (postmenopausal women; [6]) was 48.4% and the “MENQOL Vaginal dryness during intercourse (Q28) severity score, average % change from baseline to Week 12 (decreased from baseline)” value (postmenopausal women; [6]) was 52.4%. For the same molecule, the “MENQOL Avoiding intimacy (Q 29) severity score, average % change from baseline to Week 12 (decreased from baseline)” value (postmenopausal women; [7]) was 44.8%**, the “MENQOL SUMMARY SCORE of the four domains, average % change from baseline to Week 12 (decreased from baseline)” value (postmenopausal women; [7]) was 20.8%** and the “MENQOL Sexual desire (Q 27) severity score, average % change from baseline to Week 12 (decreased from baseline)” value (postmenopausal women; [7]) was 44.0%**. For the same molecule, the “MENQOL Sexual domain severity score, average % change from baseline to Week 12 (decreased from baseline)” value (postmenopausal women; [7]) was 46.7%**, the “MENQOL Vaginal dryness during intercourse (Q28) severity score, average % change from baseline to Week 12 (decreased from baseline)” value (postmenopausal women; [7]) was 49.9%** and the “MENQOL Avoiding intimacy (Q 29) severity score, average % change from baseline to Week 12 (decreased from baseline)” value (postmenopausal women; [8]) was 44.8%. The “MENQOL SUMMARY SCORE of the four domains, average % change from baseline to Week 12 (decreased from baseline)” value (postmenopausal women; [8]) was 20.8%, the “MENQOL Sexual desire (Q 27) severity score, average % change from baseline to Week 12 (decreased from baseline)” value (postmenopausal women; [8]) was 44% and the “MENQOL Sexual domain severity score, average % change from baseline to Week 12 (decreased from baseline)” value (postmenopausal women; [8]) was 46.7%. The “MENQOL Vaginal dryness during intercourse (Q28) severity score, average % change from baseline to Week 12 (decreased from baseline)” value (postmenopausal women; [8]) was 49.9%, the “MENQOL Avoiding intimacy (Q 29) severity score, average % change from baseline to Week 12 (decreased from baseline)” value (postmenopausal women; [9]) was 36.6%* and the “MENQOL SUMMARY SCORE of the four domains, average % change from baseline to Week 12 (decreased from baseline)” value (postmenopausal women; [9]) was 18.0%*. For the same molecule, the “MENQOL Sexual desire (Q 27) severity score, average % change from baseline to Week 12 (decreased from baseline)” value (postmenopausal women; [9]) was 40.2%**, the “MENQOL Sexual domain severity score, average % change from baseline to Week 12 (decreased from baseline)” value (postmenopausal women; [9]) was 39.2%** and the “MENQOL Vaginal dryness during intercourse (Q28) severity score, average % change from baseline to Week 12 (decreased from baseline)” value (postmenopausal women; [9]) was 38.2%**. For the same molecule, the “MENQOL Avoiding intimacy (Q 29) severity score, average % change from baseline to Week 12 (decreased from baseline)” value (postmenopausal women; [10]) was 36.6%, the “MENQOL SUMMARY SCORE of the four domains, average % change from baseline to Week 12 (decreased from baseline)” value (postmenopausal women; [10]) was 18% and the “MENQOL Sexual desire (Q 27) severity score, average % change from baseline to Week 12 (decreased from baseline)” value (postmenopausal women; [10]) was 40.2%. The “MENQOL Sexual domain severity score, average % change from baseline to Week 12 (decreased from baseline)” value (postmenopausal women; [10]) was 39.2%, the “MENQOL Vaginal dryness during intercourse (Q28) severity score, average % change from baseline to Week 12 (decreased from baseline)” value (postmenopausal women; [10]) was 38.2% and the “MENQOL Avoiding intimacy, average % change from baseline to Week 12 in severity score over placebo” value (postmenopausal women; MS PAIN at baseline) was 21.4%*. For the same molecule, the “MENQOL Sexual desire, average % change from baseline to Week 12 in severity score over placebo” value (shortened to “MENQOL Sexual desire, average % change”) (postmenopausal women; MS PAIN at baseline) was 18.0%, the “MENQOL Vaginal dryness at sexual activity, average % change from baseline to Week 12 in severity score over placebo” value (postmenopausal women; MS PAIN at baseline) was 23.4%** and the “MENQOL Avoiding intimacy, average % change from baseline to Week 12 in severity score over placebo” value (postmenopausal women; NO MS PAIN at baseline) was 27.4%*. For the same molecule, the “MENQOL Sexual desire, average % change” value (postmenopausal women; NO MS PAIN at baseline) was 34.1%**, the “MENQOL Vaginal dryness at sexual activity, average % change from baseline to Week 12 in severity score over placebo” value (postmenopausal women; NO MS PAIN at baseline) was 38.2%** and the “MENQOL Avoiding intimacy, average % change from baseline to Week 12 in severity score over placebo” value (postmenopausal women; TOTAL (all women)) was 22.8%**. For the same molecule, the “MENQOL Sexual desire, average % change” value (postmenopausal women; TOTAL (all women)) was 22.0%**, the “MENQOL Vaginal dryness at sexual activity, average % change from baseline to Week 12 in severity score over placebo” value (postmenopausal women; TOTAL (all women)) was 26.9%** and the “Changes over placebo, sum of the three questions of the MENQOL sexual function domain” value (postmenopausal women; no MS pain group) was 99.7%. For the same molecule, the “Specific (above placebo) effect in MENQOL, global increase over placebo” value (postmenopausal women; non MS pain group) was 5.5 fold, the “MENQOL sexual domain, average percentage of change from baseline, percentages of the three DHEA doses combined” value (postmenopausal women; non MS pain group) was 33.3% and the “Higher specificity of correction of sexual dysfunction (over placebo), MENQOL” value (postmenopausal women; women with no MS pain versus MS pain at baseline) was 6.8 fold. For the same molecule, the “Density of vaginal nerve fibers” value (vaginal nerve fibers) was “increases the density of nerve fibers” and the “Density of vaginal nerve fibers” value (vaginal nerve fibers; listed as prasterone) was “stimulatory effect”.
